Data reported in article PMC9250534, “Synthesis and direct assay of large macrocycle diversities by combinatorial late-stage modification at picomole scale” (Nature Communications, 2022).

The compounds below were run against MDM2 (Homo sapiens, UniProt Q00987) (assay: MDM2 binding screen of Libraries 3 and 4: displacement of fluorescent probe F-M8 at 750 nM macrocycle). Settings: Panel b, Library 3: 63 scaffolds combinatorially acylated with 15 carboxylic acids at 30 picomole scale; displacement of fluorescent peptide probe; macrocycle 750 nM.
Outline: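 Cyclic peptide scaffolds were acylated in DMSO with carboxylic acids (20 equiv.), HBTU and DABCO for 6 h at room temperature. Reactions were quenched overnight in 100 mM Tris-Cl pH 7.4, 0.01% Tween20. The fluorescein conjugate was also competed with nutlin-3a.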

MDM2, sequence (Q00987 whole entry): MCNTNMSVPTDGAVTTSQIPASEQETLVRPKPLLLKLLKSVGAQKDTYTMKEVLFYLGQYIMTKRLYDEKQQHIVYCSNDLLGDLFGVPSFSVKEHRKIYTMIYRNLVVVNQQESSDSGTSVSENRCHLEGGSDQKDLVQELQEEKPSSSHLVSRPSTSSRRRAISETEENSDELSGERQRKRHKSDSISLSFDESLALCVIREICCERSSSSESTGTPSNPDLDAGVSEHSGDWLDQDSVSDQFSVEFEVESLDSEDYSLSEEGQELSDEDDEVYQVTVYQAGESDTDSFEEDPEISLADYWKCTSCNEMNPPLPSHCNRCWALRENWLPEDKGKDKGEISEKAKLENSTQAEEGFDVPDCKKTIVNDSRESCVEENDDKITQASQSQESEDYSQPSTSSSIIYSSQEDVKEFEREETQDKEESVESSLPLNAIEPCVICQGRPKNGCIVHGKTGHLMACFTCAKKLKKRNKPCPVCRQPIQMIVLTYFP

Structure (SMILES) | fraction of fluorescent probe displaced
O=C(/C=C/c1ccc(OCc2ccccc2)cc1)NC[C@H]1NC(=O)[C@@H]2CN(CCO2)C(=O)CCSSCCNC(=O)[C@H](Cc2cccc3ccccc23)NC1=O [X-Cop-D-Dap-1-NaI + Acid 110] | 0.048
O=C(NCC1NC(=O)C2CN(CCO2)C(=O)CCSSCCNC(=O)C(Cc2cccc3ccccc23)NC1=O)c1cccc(Oc2ccccc2)c1 [X-Cop-D-Dap-1-NaI + Acid 111] | 0.008
CC(Oc1cccc(Cl)c1)C(=O)NC[C@H]1NC(=O)[C@@H]2CN(CCO2)C(=O)CCSSCCNC(=O)[C@H](Cc2cccc3ccccc23)NC1=O (stereo partly drawn) [X-Cop-D-Dap-1-NaI + Acid 113] | 0.008
O=C(CCS(=O)(=O)c1ccccc1)NC[C@H]1NC(=O)[C@@H]2CN(CCO2)C(=O)CCSSCCNC(=O)[C@H](Cc2cccc3ccccc23)NC1=O [X-Cop-D-Dap-1-NaI + Acid 114] | 0.008
O=C(NC[C@H]1NC(=O)[C@@H]2CN(CCO2)C(=O)CCSSCCNC(=O)[C@H](Cc2ccc3ccccc3c2)NC1=O)c1ccc(Cl)s1 [X-Cop-D-Dap-2-Nal + Acid 14] | -0.00533
O=C(NC[C@H]1NC(=O)[C@@H]2CN(CCO2)C(=O)CCSSCCNC(=O)[C@H](Cc2ccc3ccccc3c2)NC1=O)c1ccc(Cl)cc1 [X-Cop-D-Dap-2-Nal + Acid 25] | 0.00133
O=C(NCC1NC(=O)C2CN(CCO2)C(=O)CCSSCCNC(=O)C(Cc2ccc3ccccc3c2)NC1=O)c1ccc2ccccc2c1 [X-Cop-D-Dap-2-Nal + Acid 107] | 0.00455
O=C(C=Cc1ccc(OCc2ccccc2)cc1)NCC1NC(=O)C2CN(CCO2)C(=O)CCSSCCNC(=O)C(Cc2ccc3ccccc3c2)NC1=O [X-Cop-D-Dap-2-Nal + Acid 110] | 0.035
O=C(NC[C@H]1NC(=O)[C@@H]2CN(CCO2)C(=O)CCSSCCNC(=O)[C@H](Cc2ccc3ccccc3c2)NC1=O)c1cccc(Oc2ccccc2)c1 [X-Cop-D-Dap-2-Nal + Acid 111] | 0.00133
O=C(/C=C/c1ccc2ccccc2c1)NC[C@H]1NC(=O)[C@@H]2CN(CCO2)C(=O)CCSSCCNC(=O)[C@H](Cc2ccc3ccccc3c2)NC1=O [X-Cop-D-Dap-2-Nal + Acid 112] | 0.021
O=C(CCS(=O)(=O)c1ccccc1)NC[C@H]1NC(=O)[C@@H]2CN(CCO2)C(=O)CCSSCCNC(=O)[C@H](Cc2ccc3ccccc3c2)NC1=O [X-Cop-D-Dap-2-Nal + Acid 114] | -0.00533
O=C(NC[C@H]1NC(=O)[C@@H]2CN(CCO2)C(=O)CCSSCCNC(=O)[C@H](Cc2c[nH]c3cc(Cl)ccc23)NC1=O)c1ccc(Cl)s1 [X-Cop-D-Dap-Cl-Trp + Acid 14] | -0.00533
O=C(/C=C/c1ccc(OCc2ccccc2)cc1)NC[C@H]1NC(=O)[C@@H]2CN(CCO2)C(=O)CCSSCCNC(=O)[C@H](Cc2c[nH]c3cc(Cl)ccc23)NC1=O [X-Cop-D-Dap-Cl-Trp + Acid 110] | 0.035
O=C(/C=C/c1ccc2ccccc2c1)NC[C@H]1NC(=O)[C@@H]2CN(CCO2)C(=O)CCSSCCNC(=O)[C@H](Cc2c[nH]c3cc(Cl)ccc23)NC1=O [X-Cop-D-Dap-Cl-Trp + Acid 112] | 0.055
O=C(/C=C/c1ccc(OCc2ccccc2)cc1)NC[C@H]1NC(=O)[C@@H]2CN(CCO2)C(=O)CCSSCCNC(=O)[C@@H](Cc2c[nH]c3ccccc23)NC1=O [X-Cop-D-Dap-D-Trp + Acid 110] | 0.015
O=C(/C=C/c1ccc2ccccc2c1)NC[C@H]1NC(=O)[C@@H]2CN(CCO2)C(=O)CCSSCCNC(=O)[C@@H](Cc2c[nH]c3ccccc23)NC1=O [X-Cop-D-Dap-D-Trp + Acid 112] | 0.021
CC(Oc1cccc(Cl)c1)C(=O)NCC1NC(=O)C2CN(CCO2)C(=O)CCSSCCNC(=O)C(Cc2c[nH]c3ccccc23)NC1=O [X-Cop-D-Dap-D-Trp + Acid 113] | 0.008
Cn1cc(C[C@@H]2NC(=O)[C@@H](CNC(=O)c3ccc(Cl)s3)NC(=O)[C@@H]3CN(CCO3)C(=O)CCSSCCNC2=O)c2ccccc21 [X-Cop-D-Dap-Me-Trp + Acid 14] | -0.00533
Cn1cc(C[C@@H]2NC(=O)[C@@H](CNC(=O)c3ccc4ccccc4c3)NC(=O)[C@@H]3CN(CCO3)C(=O)CCSSCCNC2=O)c2ccccc21 [X-Cop-D-Dap-Me-Trp + Acid 107] | 0.050
Cn1cc(C[C@@H]2NC(=O)[C@@H](CNC(=O)/C=C/c3ccc(Cl)cc3)NC(=O)[C@@H]3CN(CCO3)C(=O)CCSSCCNC2=O)c2ccccc21 [X-Cop-D-Dap-Me-Trp + Acid 108] | 0.021

Structure (SMILES) | fraction of fluorescent probe displaced
Cn1cc(CC2NC(=O)C(CNC(=O)C=Cc3ccc(OCc4ccccc4)cc3)NC(=O)C3CN(CCO3)C(=O)CCSSCCNC2=O)c2ccccc21 [X-Cop-D-Dap-Me-Trp + Acid 110] | 0.028
CN1C(=O)[C@@H](CNC(=O)c2ccc(Cl)s2)NC(=O)[C@@H]2CN(CCO2)C(=O)CCSSCCNC(=O)[C@@H]1Cc1c[nH]c2ccccc12 [X-Cop-D-Dap-NMe-Trp + Acid 14] | -0.019
CN1C(=O)[C@@H](CNC(=O)c2ccc(Cl)cc2)NC(=O)[C@@H]2CN(CCO2)C(=O)CCSSCCNC(=O)[C@@H]1Cc1c[nH]c2ccccc12 [X-Cop-D-Dap-NMe-Trp + Acid 25] | -0.019
CN1C(=O)[C@@H](CNC(=O)/C=C/c2ccc(Cl)cc2)NC(=O)[C@@H]2CN(CCO2)C(=O)CCSSCCNC(=O)[C@@H]1Cc1c[nH]c2ccccc12 [X-Cop-D-Dap-NMe-Trp + Acid 108] | 0.008
CN1C(=O)[C@@H](CNC(=O)/C=C/c2ccc(OCc3ccccc3)cc2)NC(=O)[C@@H]2CN(CCO2)C(=O)CCSSCCNC(=O)[C@@H]1Cc1c[nH]c2ccccc12 [X-Cop-D-Dap-NMe-Trp + Acid 110] | 0.015
CN1C(=O)C(CNC(=O)c2cccc(Oc3ccccc3)c2)NC(=O)C2CN(CCO2)C(=O)CCSSCCNC(=O)C1Cc1c[nH]c2ccccc12 [X-Cop-D-Dap-NMe-Trp + Acid 111] | 0.00133
CN1C(=O)[C@@H](CNC(=O)/C=C/c2ccc3ccccc3c2)NC(=O)[C@@H]2CN(CCO2)C(=O)CCSSCCNC(=O)[C@@H]1Cc1c[nH]c2ccccc12 [X-Cop-D-Dap-NMe-Trp + Acid 112] | 0.035
O=C(NC[C@H]1NC(=O)[C@@H]2CN(CCO2)C(=O)CCSSCCNC(=O)[C@H](Cc2c[nH]c3ccccc23)NC1=O)c1ccc(Cl)cc1 [X-Cop-D-Dap-Trp + Acid 25] | 0.00133
O=C(C=Cc1ccc(Cl)cc1)NCC1NC(=O)C2CN(CCO2)C(=O)CCSSCCNC(=O)C(Cc2c[nH]c3ccccc23)NC1=O [X-Cop-D-Dap-Trp + Acid 108] | 0.021
O=C(/C=C/c1ccc(OCc2ccccc2)cc1)NC[C@H]1NC(=O)[C@@H]2CN(CCO2)C(=O)CCSSCCNC(=O)[C@H](Cc2c[nH]c3ccccc23)NC1=O [X-Cop-D-Dap-Trp + Acid 110] | -0.00533
O=C(NC[C@H]1NC(=O)[C@@H]2CN(CCO2)C(=O)CCSSCCNC(=O)[C@H](Cc2c[nH]c3ccccc23)NC1=O)c1cccc(Oc2ccccc2)c1 [X-Cop-D-Dap-Trp + Acid 111] | 0.015
O=C(NC[C@H]1NC(=O)[C@@H]2CN(CCO2)C(=O)CCSSCCNC(=O)[C@H](Cc2c[nH]c3ccccc23)NC1=O)C1COc2ccccc2O1 (stereo partly drawn) [X-Cop-D-Dap-Trp + Acid 115] | 0.008
O=C(NC[C@@H]1NC(=O)[C@@H]2CN(CCO2)C(=O)CCSSCCNC(=O)[C@H](Cc2cccc3ccccc23)NC1=O)c1ccc(Cl)s1 [X-Cop-Dap-1-NaI + Acid 14] | 0.008
O=C(NCC1NC(=O)C2CN(CCO2)C(=O)CCSSCCNC(=O)C(Cc2cccc3ccccc23)NC1=O)c1ccc(Cl)cc1 (stereo not drawn) [X-Cop-Dap-1-NaI + Acid 25] | -0.012
O=C(/C=C/c1ccc2ccccc2c1)NC[C@@H]1NC(=O)[C@@H]2CN(CCO2)C(=O)CCSSCCNC(=O)[C@H](Cc2cccc3ccccc23)NC1=O [X-Cop-Dap-1-NaI + Acid 112] | 0.021
O=C(CCS(=O)(=O)c1ccccc1)NC[C@@H]1NC(=O)[C@@H]2CN(CCO2)C(=O)CCSSCCNC(=O)[C@H](Cc2cccc3ccccc23)NC1=O [X-Cop-Dap-1-NaI + Acid 114] | 0.021
O=C(NC[C@@H]1NC(=O)[C@@H]2CN(CCO2)C(=O)CCSSCCNC(=O)[C@H](Cc2ccc3ccccc3c2)NC1=O)c1ccc(Cl)cc1 [X-Cop-Dap-2-Nal + Acid 25] | 0.041
O=C(/C=C/c1ccc(OCc2ccccc2)cc1)NC[C@@H]1NC(=O)[C@@H]2CN(CCO2)C(=O)CCSSCCNC(=O)[C@H](Cc2ccc3ccccc3c2)NC1=O [X-Cop-Dap-2-Nal + Acid 110] | 0.035
O=C(NCC1NC(=O)C2CN(CCO2)C(=O)CCSSCCNC(=O)C(Cc2ccc3ccccc3c2)NC1=O)c1cccc(Oc2ccccc2)c1 (stereo not drawn) [X-Cop-Dap-2-Nal + Acid 111] | 0.008
O=C(CCS(=O)(=O)c1ccccc1)NC[C@@H]1NC(=O)[C@@H]2CN(CCO2)C(=O)CCSSCCNC(=O)[C@H](Cc2ccc3ccccc3c2)NC1=O [X-Cop-Dap-2-Nal + Acid 114] | -0.00533
